The values that follow come from doi:10.1101/2020.07.07.192294v1 (biorxiv, 2020).

Read-outs that look alike come from different tables or passages of the source.

For one assay, the target named is T1, CYP124 (Mycobacterium tuberculosis, UniProt P9WPP3).
T1 sequence (P9WPP3 1-428): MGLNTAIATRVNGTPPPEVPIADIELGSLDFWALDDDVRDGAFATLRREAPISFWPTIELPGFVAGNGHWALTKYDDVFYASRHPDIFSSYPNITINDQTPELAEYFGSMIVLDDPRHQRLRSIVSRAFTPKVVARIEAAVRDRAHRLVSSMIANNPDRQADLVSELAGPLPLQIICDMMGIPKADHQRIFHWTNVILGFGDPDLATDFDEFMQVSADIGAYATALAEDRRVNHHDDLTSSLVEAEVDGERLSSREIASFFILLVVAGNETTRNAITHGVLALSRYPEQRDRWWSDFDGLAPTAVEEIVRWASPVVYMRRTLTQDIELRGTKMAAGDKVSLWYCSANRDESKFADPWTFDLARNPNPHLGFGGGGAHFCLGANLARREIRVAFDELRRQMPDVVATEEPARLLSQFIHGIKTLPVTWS
The experiment in a line: biochemical.

The target in assay [1] is T2, CYP142 (Rv3518c) (Mycobacterium tuberculosis, UniProt P9WPL5).
T2 sequence (P9WPL5 1-398): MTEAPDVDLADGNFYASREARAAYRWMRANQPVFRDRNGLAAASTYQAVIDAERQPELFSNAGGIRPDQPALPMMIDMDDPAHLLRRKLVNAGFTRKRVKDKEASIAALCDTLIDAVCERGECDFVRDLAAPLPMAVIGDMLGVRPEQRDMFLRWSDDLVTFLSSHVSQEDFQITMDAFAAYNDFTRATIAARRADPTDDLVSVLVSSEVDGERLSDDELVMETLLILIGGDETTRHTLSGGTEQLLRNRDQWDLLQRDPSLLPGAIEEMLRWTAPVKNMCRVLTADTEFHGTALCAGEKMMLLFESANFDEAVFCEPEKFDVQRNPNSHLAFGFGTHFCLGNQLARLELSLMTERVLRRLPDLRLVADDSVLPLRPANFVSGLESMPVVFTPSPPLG
In words: biochemical. Format: binding.

For another assay, the target named is T3, CYP125 (Mycobacterium tuberculosis, UniProt P9WPP1).
T3 sequence (P9WPP1 1-433): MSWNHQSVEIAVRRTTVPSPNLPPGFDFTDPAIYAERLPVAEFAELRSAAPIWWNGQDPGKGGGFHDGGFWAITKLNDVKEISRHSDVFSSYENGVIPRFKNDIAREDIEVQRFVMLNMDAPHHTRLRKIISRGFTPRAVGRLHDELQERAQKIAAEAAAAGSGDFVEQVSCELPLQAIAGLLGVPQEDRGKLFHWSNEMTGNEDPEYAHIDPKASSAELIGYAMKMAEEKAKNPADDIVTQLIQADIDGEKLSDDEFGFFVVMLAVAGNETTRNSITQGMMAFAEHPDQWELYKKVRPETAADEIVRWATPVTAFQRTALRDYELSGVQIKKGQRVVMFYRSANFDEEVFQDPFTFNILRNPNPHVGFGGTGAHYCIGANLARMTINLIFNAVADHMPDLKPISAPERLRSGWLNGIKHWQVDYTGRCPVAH
In words: biochemical.

Assay [2] has as its target T4, CYP142 (Rv3518c) (Mycobacterium tuberculosis, UniProt P9WPL5). The experiment in a line: biochemical.
For assay [3], the target named is T4, CYP142 (Rv3518c). The settings on record: read-out: Kdapp ± SE (μM) / CYP142; binder.

Turning to `O=C(O)CCCCCCCn1ccnc1` [ChpImi], the Kd on CYP124 was determined as 3.1 ± 0.5 µM; at CYP142 (Rv3518c) [1], 31 ± 3 µM; on CYP125, 1.61 ± 0.03 µM.
As for `CC(C)CCC[C@@H](C)[C@H]1CC[C@H]2[C@@H]3[C@@H](O)C=C4C[C@@H](O)CC[C@]4(C)[C@H]3CC[C@]12C` [7βOHC], the Kd was 11.1 ± 1.3 µM at CYP124, 6 ± 1.4 µM on CYP142 (Rv3518c) [2] and 13 ± 2 µM at CYP125.
In the case of `CC(C)CCC[C@@H](C)[C@H]1CC[C@H]2[C@@H]3CCC4=CC(=O)CC[C@]4(C)[C@H]3CC[C@]12C` [Cholestenone], the Kd was found to be 3.4 ± 0.6 µM on CYP124 and 10.8 ± 1.8 µM on CYP125.
Consider `Cc1cc(CCC(C)C)ccc1NC=NO` [cpd5', N′-hydroxy-N-(4-isopentyl-2-methylphenyl)formimidamide], for which the Kd amounted to 1.93 ± 0.16 µM on CYP124, 0.17 ± 0.06 µM at CYP142 (Rv3518c) [1] and 16 ± 5 µM at CYP125.
Regarding `CC(C)CCC[C@@H](C)[C@H]1CC[C@H]2[C@@H]3C(=O)C=C4C[C@@H](O)CC[C@]4(C)[C@H]3CC[C@]12C` [7ketoC], the Kd at CYP124 was determined as 6.5 ± 0.8 µM; at CYP142 (Rv3518c) [2], 4.3 ± 0.8 µM; at CYP125 it was 12.4 ± 1.7 µM.
As for `CCOC(=O)CCCCCCn1ccnc1` [CHImi], the Kd at CYP124 stood at 1.45 ± 0.08 µM; on CYP142 (Rv3518c) [1] it was 3.73 ± 0.19 µM; at CYP125 it was 31 ± 4 µM.
`CC(C)CCC[C@@H](C)[C@H]1CC[C@H]2[C@@H]3[C@@H](O)CC4=CC(=O)CC[C@]4(C)[C@H]3CC[C@]12C` [7βOHC-one]: the Kd at CYP124 (read-out: Kdapp ± SE (μM) / CYP124, binder) stood at 13.2 ± 1.7 µM; on CYP142 (Rv3518c) [3], 27 ± 8 µM; on CYP125 (read-out: Kdapp ± SE (μM) / CYP125, binder), 26 ± 3 µM.
